{"source": "paper PMC9147192", "about": "“Small Molecule Arranged Thermal Proximity Coaggregation (smarTPCA)—A Novel Approach to Characterize Protein–Protein Interactions in Living Cells by Similar Isothermal Dose–Responses” (International Journal of Molecular Sciences, 2022)", "key": {"CHMP4B": {"target": "T1, CHMP4B (Homo sapiens, UniProt Q9H444)", "T1 construct": "endogenous in cells; host or cells: HL-60 (ATCC CCL-240)", "T1 sequence (Q9H444 1-224)": "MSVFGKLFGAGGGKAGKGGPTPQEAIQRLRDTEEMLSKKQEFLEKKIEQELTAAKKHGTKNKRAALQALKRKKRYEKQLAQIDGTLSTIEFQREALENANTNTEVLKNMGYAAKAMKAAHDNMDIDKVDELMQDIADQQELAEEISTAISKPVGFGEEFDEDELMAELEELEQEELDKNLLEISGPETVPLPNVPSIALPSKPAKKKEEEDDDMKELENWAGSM", "test": "TPP-CCR in living HL-60 cells", "format": "cell-based"}, "NOP2": {"target": "T2, NOP2 (Homo sapiens, UniProt P46087)", "T2 construct": "dose–responses (mean over replicates), derived from TPP-CCR experiments in living cells; endogenous in cells; host or cells: HL-60 cells (ATCC No. CCL-240)", "T2 sequence (P46087 1-812)": "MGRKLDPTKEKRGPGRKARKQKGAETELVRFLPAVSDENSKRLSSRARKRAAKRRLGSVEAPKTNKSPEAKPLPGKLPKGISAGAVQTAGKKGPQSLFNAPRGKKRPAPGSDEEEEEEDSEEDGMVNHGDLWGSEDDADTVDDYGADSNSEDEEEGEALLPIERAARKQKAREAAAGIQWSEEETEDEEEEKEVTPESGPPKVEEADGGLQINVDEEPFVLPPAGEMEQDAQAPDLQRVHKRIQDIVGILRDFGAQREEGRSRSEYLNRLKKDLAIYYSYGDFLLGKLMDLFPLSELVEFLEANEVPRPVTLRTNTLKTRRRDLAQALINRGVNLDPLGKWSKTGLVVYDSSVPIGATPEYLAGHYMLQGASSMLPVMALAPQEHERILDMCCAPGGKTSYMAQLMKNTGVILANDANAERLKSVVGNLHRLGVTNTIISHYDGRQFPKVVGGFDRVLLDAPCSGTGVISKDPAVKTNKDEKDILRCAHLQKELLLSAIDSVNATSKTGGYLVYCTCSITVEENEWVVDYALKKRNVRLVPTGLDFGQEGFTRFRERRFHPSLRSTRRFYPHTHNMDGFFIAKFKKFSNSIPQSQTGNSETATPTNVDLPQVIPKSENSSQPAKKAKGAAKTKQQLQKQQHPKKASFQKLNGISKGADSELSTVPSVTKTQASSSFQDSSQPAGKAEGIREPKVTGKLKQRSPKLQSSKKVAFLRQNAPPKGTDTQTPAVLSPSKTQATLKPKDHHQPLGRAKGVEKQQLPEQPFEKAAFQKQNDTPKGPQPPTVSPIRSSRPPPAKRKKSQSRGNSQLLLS", "test": "TPP-CCR in living HL-60 cells", "format": "cell-based"}, "[1]": {"conditions": "living HL-60 cells, […] °C, TMT-MS"}}, "data": [{"compound": "Cc1cnc(Nc2ccc(F)cc2Cl)nc1-c1c[nH]c(C(=O)N[C@H](CO)c2cccc(Cl)c2)c1", "note": "[ERK 11e]", "values": [{"measurement": "Hill slope", "setting": "CHMP4B; TPP-CCR, living cells, CHMP4B", "result": 0.21}, {"measurement": "Hill slope (CHMP4B)", "setting": "CHMP4B; [1]", "result": 0.21}, {"measurement": "EC50", "setting": "CHMP4B; living HL-60 cells, […] °C, TMT-MS, read-out: pEC50 (CHMP4B) (converted)", "result": 0.0417, "unit": "µM"}, {"measurement": "Hill slope", "setting": "NOP2; TPP-CCR, living cells, NOP2", "result": 0.29}, {"measurement": "Hill slope (NOP2)", "setting": "NOP2; [1]", "result": 0.29}, {"measurement": "EC50", "setting": "NOP2; living HL-60 cells, […] °C, TMT-MS, read-out: pEC50 (NOP2) (converted)", "result": 0.105, "unit": "µM"}]}]}
